“And” between values parts separate entries of the source, which are not always exact repeats. Equal values may be shown once. “Also recorded” adds a separate entry of the source. No end group written: not given here.
How the values were obtained:
[1] = tested on: human umbilical cord blood CD34+ cells; assay: Transwell migration of CD34+ cells toward SDF-1α; format: cell-based
Method: CD34^+ cell migration toward 100 ng/mL SDF-1α in a Corning Transwell device (24 well format, 5 μm pore size, polycarbonate membrane) was studied with and without Compound X and in the presence or absence of either anti-CXCR4 antibody or the CXCR4 antagonist AMD3100.
The CD34^+ population of cells from human umbilical cord blood was obtained from Lonza, defrosted and expanded ex vivo with cytokine cocktail for 6 days according to standard procedures. Briefly, 10 wells of two 12 well dishes were seeded at a density of 8×10^4 cells per well in 2 mL of CellGenix serum free growth medium (SCGM). Cells were allowed to expand in a 37° C. incubator (5% CO2, 86% RH) for 6 days. During the expansion, the 10 wells of one of the two plates received treatments of Compound X to a final concentration of 5 ng/mL (10 μL from freshly prepared 1 μg/mL stock in SCGM) at 24 hours and 72 hours after initiation of the culture.
3 hours prior to the start of the migration assay, both control and Compound X expanded cells were pulsed with either 0, 5 ng/mL or 5 μg/mL Compound X. Migration assay was performed according to the method described (Tavor et al. 2005). Cells were centrifuged for 5 minutes at 1100 RPM and resuspended at a density of 2×10^6 cells/mL in CellGenix SCGM serum free medium containing 1% Fraction V BSA either in the presence or absence of 5 ng/mL or 5 μg/mL Compound X for 3 hours. The feeder tray (bottom) was prepared with 600 μL of serum free SCGM supplemented with 1% BSA in the presence or absence of SDF-1α. All treatments were conducted in triplicate. The wells of the migration chamber (top) received 100 μL of cells from the 2×10^6 cells/mL suspensions, preincubated with 5 ng/mL or 5 μg/mL Compound X or Control. All treatments were conducted in triplicates. The plates were placed in a 37° C. incubator (5% CO2, 86% RH) and cells were allowed to migrate for 4 hours. […]
The cells were thawed at room temperature. […] 150 μL of the resulting cell lysates were transferred to a new 96 well plate and the fluorescence was read on a […] SpectraMax M2 fluorimeter (ex 485, em 538). […]

[2] = tested on: CFU-GEMM / CFU-GM colony-forming cells; assay: CFU colony assay of peripheral blood on day 7 after 5 daily subcutaneous injections; format: in vivo, DBA/2J male mice
Method: Mobilization of hematopoietic stem and progenitor cells from bone marrow into peripheral blood is important for tissue regeneration. However, this physiological mechanism is often insufficient, including in elderly patients and people with diabetes. In order to look at the ability of Compound X mobilized stem cells to mediate tissue regeneration, multiple in vivo injections of Compound X were administered. A group of DBA/2J male mice were injected subcutaneously for 5 consecutive days with 250 ug/kg Compound X in Saline. Another group of mice received injections of vehicle only. Peripheral blood from 3 mice from each of these groups was then harvested from the orbital plexus at 7 days post initial injection. Blood was also harvested and pooled from 3 naïve mice to serve as an additional control group. To determine mobilization of pluripotent colony-forming cells from bone marrow into peripheral blood, mononuclear cells obtained from blood were plated into MethoCult 3434 media (Stem Cell Technologies 03434). Briefly, peripheral blood from three mice was pooled, diluted (1:1, v/v) with 0.9% saline (APP Pharmaceutical) and layered (2:1, v/v) onto 1-Step™1.077 A (Accurate Chemicals AN224510) in 15-ml centrifuge tubes. Cells were centrifuged at 600×g for 20 min at room temperature. The mononuclear cells were harvested from the interface between the plasma layer and the 1-Step™ A solution using a 1-ml syringe and 16G blunt-end needle (Stem Cell Technologies 28120). The cells were transferred to 15-ml centrifuge tubes and washed twice in 1×PBS. The cells were placed into 35-mm Petri dishes at 100,000 cells per dish with 5 dishes per group. Cells incubated for 10 days in a 37° C. and 5% CO2 humidified incubator. CFU-GM colonies consisting of granulocytic and monocytic cells and CFU-GEMM colonies representing mixed cell populations of granulocytes, macrophages and erythroid cells were then scored using an inverted microscope. Blood was taken at Zeitgeber Time 4 (ZT4) which corresponded to the physiological time of cell emigration from bone marrow—the circadian stem cell mobilization peak.

[3] = 250 ug/kg s.c. 5 consecutive days, day 7
[4] = 250 ug/kg s.c. 5 consecutive days, day 7, individual dishes
[5] = 250 ug/kg/day for 5 days, day 7
[6] = DBA mice, multiple s.c. 250 ug/kg

FPHFDLSHGSAQV [Compound X, tridecapeptide that acts on stem cells]
interference with the effect of AMD3100 or anti CXCR4 antibody on migration ([1]; 5 ng/mL Compound X): did not interfere | CD34+ cell Transwell migration toward SDF-1α ([1]; cells expanded with 5 ng/mL and/or pulsed 3 hours with Compound X, 100 ng/mL SDF-1α, 4 hours): no significant difference; also recorded: had no effect | CFU-GEMM AVG [2, 3]: 11.4 colonies/100,000 MNCs | CFU-GEMM Average [2, 3]: 79.8 Colonies/ml of Peripheral Blood | CFU-GM AVG [2, 3]: 12.4 colonies/100,000 MNCs | CFU-GM Average [2, 3]: 86.8 Colonies/ml of Peripheral Blood | CFU-GEMM Colony # [2, 4]: 8 colonies/100,000 MNCs (2×) and 13 colonies/100,000 MNCs and 12 colonies/100,000 MNCs and 16 colonies/100,000 MNCs | CFU-GM Colony # [2, 4]: 13 colonies/100,000 MNCs (2×) and 14 colonies/100,000 MNCs (2×) and 8 colonies/100,000 MNCs | number of circulating CFU-GM [2, 5]: did not change | total CFU-GEMM number in circulation vs naïve or vehicle mice [2, 5]: 3 times higher | increase in CFU-GEMM number per ml of blood vs saline control group [2, 6]: 3.3 fold | increase in CFU-GEMM number per ml of blood vs untreated control group [2, 6]: 3.8 fold

Reference: patent publication US20140088006A1, “Stem Cell Mobilization and Tissue Repair and Regeneration” (Wellstat Therapeutics Corporation, priority 2011, published 2014)
